As a reminder, the fraction unbound is the share of the substance not bound to proteins or other matrix. By Papp A→B is commonly meant the apparent permeability from the apical to the basolateral side of a cell layer. A word on the bioavailability: it is the share of a dose that reaches the circulation, judged against a reference dose that is usually intravenous. High values mean good availability, low ones poor availability. Broadly, the chromatographic logD is a lipophilicity value derived from retention on a column. As a reminder, the solubility is the dissolved amount per volume that the medium holds. A lower solubility goes with little dissolved substance. What is called IC50 is the concentration at which inhibition is half-maximal.

≈ marks a conversion by molar mass, not a printed value.

The values below come from ChEMBL document CHEMBL2176918, “Design and optimization of pyrazinecarboxamide-based inhibitors of diacylglycerol acyltransferase 1 (DGAT1) leading to a clinical candidate dimethylpyrazinecarboxamide phenylcyclohexylacetic acid (AZD7687)” (J Med Chem, 2012).

Data set [1] in a line: Fraction unbound in human plasma at 37 degC by LC-UV/MS method based equilibrium dialysis method. (In equilibrium dialysis free small molecules cross a membrane that holds back macromolecules.)
Data set [2] is described as follows: Apparent permeability from apical to basolateral side in human Caco2 cells at pH 7.4. It is filed as ADME, cell-based. The settings on record: Caco-2, pH 7.4. In general terms: Passage across Caco-2 layers is used to estimate intestinal permeability.
The nature of data set [3]: Oral bioavailability in rat. The settings on record: in vivo.
Data set [4] in a line: Lipophilicity, log D of the compound at pH 7.4 by chromatographic method. Particulars: buffer.
Data set [5] can be described thus: Solubility in 0.1 M phosphate buffer at pH 7.4 at 25 degC incubated for 24 hrs.
Data set [6] addresses T1, Diacylglycerol O-acyltransferase 1 (Homo sapiens, UniProt O75907).
T1 sequence (O75907 whole entry): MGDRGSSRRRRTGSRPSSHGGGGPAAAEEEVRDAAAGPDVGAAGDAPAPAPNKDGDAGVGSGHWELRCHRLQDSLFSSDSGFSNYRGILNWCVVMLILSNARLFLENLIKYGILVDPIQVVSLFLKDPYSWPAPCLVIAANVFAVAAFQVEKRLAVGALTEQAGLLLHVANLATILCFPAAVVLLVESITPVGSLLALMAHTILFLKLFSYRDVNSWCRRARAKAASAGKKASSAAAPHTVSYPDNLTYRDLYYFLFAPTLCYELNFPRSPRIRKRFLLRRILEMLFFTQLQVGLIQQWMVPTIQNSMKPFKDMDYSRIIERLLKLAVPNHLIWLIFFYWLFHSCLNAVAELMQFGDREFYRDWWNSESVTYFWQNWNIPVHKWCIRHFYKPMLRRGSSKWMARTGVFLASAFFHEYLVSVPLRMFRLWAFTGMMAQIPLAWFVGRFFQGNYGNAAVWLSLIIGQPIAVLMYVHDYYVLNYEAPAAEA
Description: Inhibition of human recombinant DGAT1 expressed in Sf9 cells by liquid scintillography

In data set [7] the target is T2, Sterol O-acyltransferase 1 (Homo sapiens, UniProt P35610).
T2 sequence (P35610 whole entry): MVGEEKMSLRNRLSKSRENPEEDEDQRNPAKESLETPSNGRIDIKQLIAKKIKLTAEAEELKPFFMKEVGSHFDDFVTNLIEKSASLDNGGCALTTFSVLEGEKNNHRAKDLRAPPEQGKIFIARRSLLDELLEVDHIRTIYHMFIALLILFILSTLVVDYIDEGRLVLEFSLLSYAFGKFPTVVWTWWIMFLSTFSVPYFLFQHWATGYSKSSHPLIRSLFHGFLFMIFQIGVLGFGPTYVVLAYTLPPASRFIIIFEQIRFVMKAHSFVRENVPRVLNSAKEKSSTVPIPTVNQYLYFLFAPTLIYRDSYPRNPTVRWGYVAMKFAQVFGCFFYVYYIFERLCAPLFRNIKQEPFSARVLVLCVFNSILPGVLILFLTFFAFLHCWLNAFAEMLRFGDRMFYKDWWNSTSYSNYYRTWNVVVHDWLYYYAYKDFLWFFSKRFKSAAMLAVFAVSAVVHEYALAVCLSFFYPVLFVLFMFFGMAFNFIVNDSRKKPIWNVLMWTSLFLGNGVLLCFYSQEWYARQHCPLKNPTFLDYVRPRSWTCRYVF
Description: Inhibition of human ACAT1 by liquid scintillography

The nature of data set [8]: Stability in pH 7.8 buffer assessed as acyl migration incubated for 45 mins. It is filed as physicochemical. The settings on record: pH 7.8, 0.75 h.
Data set [9] is described as follows: Stability in pH 7.8 buffer assessed as compound degradation incubated for 45 mins. Particulars: pH 7.8, 0.75 h. It is filed as physicochemical.

Turning to `Cc1nc(C)c(-c2ccc([C@H]3CC[C@H](CC(=O)NC(C)(C)C(=O)O)CC3)cc2)nc1C(N)=O`, in data set [1], the fraction unbound amounted to 0.078. In data set [2], the Papp A→B turned out to be 0.71 ×10⁻⁶ cm/s. The same compound came in with a bioavailability in data set [3] of 19%. Also, the chromatographic logD in data set [4] was 0.7. The solubility at 24 h in [5] is 86 µM (≈ 38.9 µg/mL). In data set [6], this compound returned an IC50 of 110 nM.

Take `NC(=O)c1cncc(-c2ccc([C@H]3CC[C@H](CC(=O)O)CC3)cc2)n1`: the unbound share (fraction unbound) in [1] came to 0.035. Besides, the Papp A→B in data set [2] came to 29 ×10⁻⁶ cm/s. For the same compound, in [3], the bioavailability stood at 62%. Further, the chromatographic logD in [4] is below 0.1. Besides, the IC50 in data set [7] was above 100 µM; in [6], 1900 nM.

On to `Cc1nc(C)c(-c2ccc([C@H]3CC[C@H](CC(=O)O[C@@H]4O[C@H](C(=O)O)[C@@H](O)[C@H](O)[C@H]4O)CC3)cc2)nc1C(N)=O`, for which the Stability entry in [8] and in data set [9] was “Stable” throughout.
